System: 4T1-luc2 cells
Experiment: In vitro validation of released drug efficacy
Assay type: cell-based
Details: after 4 hours, free drug dose equals cumulative cisplatin release at 4 hours
From the text: Additional controls include unloaded MPs and untreated cells. […] As shown in these experiments, the local release of high levels of payload may result in a stark increase in efficiency for the treatment of diseased cells.

## N.N.[Cl][Pt][Cl] [Cisplatin]
  cell death as compared to control: little to no cell death

From US20260151347A1, “CELL-DERIVED MICROPARTICLE DELIVERY SYSTEM AND USES THEREOF” (priority 2021, published 2026)
